Like-named read-outs stand apart in the source and are kept apart here.
Columns and labels:
Test in all cases: NCI single dose screening (10 µM)
Type in all cases: cell-based
CCRF-CEM = conditions: Homo sapiens, read-out: GI% (cell growth inhibition percentage)
MOLT-4 = conditions: Homo sapiens
HL-60(TB) = conditions: Homo sapiens
SR = conditions: Homo sapiens, read-out: GI% (cell growth inhibition percentage)
EKVX = conditions: Homo sapiens, read-out: GI% (cell growth inhibition percentage)
NCI-H23 = conditions: Homo sapiens
HCC-2998 = conditions: Homo sapiens
SW-620 = conditions: Homo sapiens
HT-29 = conditions: Homo sapiens
SF-295 = conditions: Homo sapiens
U251 = conditions: Homo sapiens
SNB-19 = conditions: Homo sapiens
MALME-3M = conditions: Homo sapiens, read-out: GI% (cell growth inhibition percentage)
M14 = conditions: Homo sapiens
UACC-257 = conditions: Homo sapiens
UACC-62 = conditions: Homo sapiens
SK-MEL-28 = conditions: Homo sapiens
IGROV1 = conditions: Homo sapiens
OVCAR-8 = conditions: Homo sapiens
OVCAR-5 = conditions: Homo sapiens
786-0 = conditions: Homo sapiens
CAKI-1 = conditions: Homo sapiens
ACHN = conditions: Homo sapiens, read-out: GI% (cell growth inhibition percentage)
SN12C = conditions: Homo sapiens, read-out: GI% (cell growth inhibition percentage)
RXF 393 = conditions: Homo sapiens
UO-31 = conditions: Homo sapiens
TK-10 = conditions: Homo sapiens
DU-145 = conditions: Homo sapiens
MCF7 = conditions: Homo sapiens
BT-549 = conditions: Homo sapiens
HS 578 T = conditions: Homo sapiens, read-out: GI% (cell growth inhibition percentage)
T-47D = conditions: Homo sapiens, T47D, read-out: GI% (cell growth inhibition percentage)
[1] = Renal cancer, single dose 10^−5 M

CCCN1C(=O)/C(=N\NC(=O)c2oc3ccccc3c2C)c2cc(Br)ccc21 [Compound 7g]
inhibition at 10 µM (CCRF-CEM): < 10% | inhibition at 10 µM (MOLT-4; MOLT-4, read-out: GI% (cell growth inhibition percentage)): < 10% | inhibition at 10 µM (HL-60(TB); HL-60, read-out: GI% (cell growth inhibition percentage)): < 10% | inhibition at 10 µM (SR): < 10% | inhibition at 10 µM (EKVX): 18.1% | inhibition at 10 µM (NCI-H23; NCI-H23, read-out: GI% (cell growth inhibition percentage)): < 10% | inhibition at 10 µM (HCC-2998; HCC 2998, read-out: GI% (cell growth inhibition percentage)): < 10% | inhibition at 10 µM (SW-620; SW-620, read-out: GI% (cell growth inhibition percentage)): < 10% | inhibition at 10 µM (HT-29; HT-29, read-out: GI% (cell growth inhibition percentage)): < 10% | inhibition at 10 µM (SF-295; SF-295, read-out: GI% (cell growth inhibition percentage)): < 10% | inhibition at 10 µM (U251; U-251, read-out: GI% (cell growth inhibition percentage)): < 10% | inhibition at 10 µM (SNB-19; SNB-19, read-out: GI% (cell growth inhibition percentage)): < 10% | inhibition at 10 µM (MALME-3M; Malme-3M): 16% | inhibition at 10 µM (M14; M14, read-out: GI% (cell growth inhibition percentage)): < 10% | inhibition at 10 µM (UACC-257; UACC-257, read-out: GI% (cell growth inhibition percentage)): < 10% | inhibition at 10 µM (UACC-62; UACC-62, read-out: GI% (cell growth inhibition percentage)): < 10% | inhibition at 10 µM (SK-MEL-28; SK-MEL-28, read-out: GI% (cell growth inhibition percentage)): < 10% | inhibition at 10 µM (IGROV1; IGROV-1, read-out: GI% (cell growth inhibition percentage)): 22.4% | inhibition at 10 µM (OVCAR-8; OVCAR-8, read-out: GI% (cell growth inhibition percentage)): < 10% | inhibition at 10 µM (OVCAR-5; OVCAR-5, read-out: GI% (cell growth inhibition percentage)): < 10% | inhibition at 10 µM (786-0; 786-0, read-out: GI% (cell growth inhibition percentage)): < 10% | inhibition at 10 µM (CAKI-1; CAKI-1, read-out: GI% (cell growth inhibition percentage)): 14.1% | inhibition at 10 µM (ACHN): < 10% | inhibition at 10 µM (SN12C): < 10% | inhibition at 10 µM (RXF 393; RXF 393, read-out: GI% (cell growth inhibition percentage)): < 10% | inhibition at 10 µM (UO-31; UO-31, read-out: GI% (cell growth inhibition percentage)): 21.9% | inhibition at 10 µM (TK-10; TK-10, read-out: GI% (cell growth inhibition percentage)): < 10% | inhibition at 10 µM (DU-145; DU-145, read-out: GI% (cell growth inhibition percentage)): < 10% | inhibition at 10 µM (MCF7; MCF7, read-out: GI% (cell growth inhibition percentage)): 13.2% | inhibition at 10 µM (BT-549; BT-549, read-out: GI% (cell growth inhibition percentage)): < 10% | inhibition at 10 µM (HS 578 T; Hs-578T): < 10% | inhibition at 10 µM (T-47D): < 10%

Cc1c(C(=O)N/N=C2\C(=O)Nc3ccc(Br)cc32)oc2ccccc12 [Compound 5c]
inhibition at 10 µM (CCRF-CEM; Leukaemia, single dose 10^−5 M): < 10% | inhibition at 10 µM (MOLT-4; MOLT-4, Leukaemia, single dose 10^−5 M, read-out: GI% (cell growth inhibition percentage)): < 10% | inhibition at 10 µM (HL-60(TB); HL-60(TB), Leukaemia, single dose 10^−5 M, read-out: GI% (cell growth inhibition percentage)): 21.5% | inhibition at 10 µM (SR; Leukaemia, single dose 10^−5 M): 17.6% | inhibition at 10 µM (EKVX; Non-small cell lung cancer, single dose 10^−5 M): 32.1% | inhibition at 10 µM (NCI-H23; NCI-H23, Non-small cell lung cancer, single dose 10^−5 M, read-out: GI% (cell growth inhibition percentage)): 33% | inhibition at 10 µM (HCC-2998; HCC-2998, Colon cancer, single dose 10^−5 M, read-out: GI% (cell growth inhibition percentage)): < 10% | inhibition at 10 µM (SW-620; SW-620, Colon cancer, single dose 10^−5 M, read-out: GI% (cell growth inhibition percentage)): 10.6% | inhibition at 10 µM (HT-29; HT-29, Colon cancer, single dose 10^−5 M, read-out: GI% (cell growth inhibition percentage)): < 10% | inhibition at 10 µM (SF-295; SF-295, CNS cancer, single dose 10^−5 M, read-out: GI% (cell growth inhibition percentage)): 20.3% | inhibition at 10 µM (U251; U-251, U251, CNS cancer, single dose 10^−5 M, read-out: GI% (cell growth inhibition percentage)): 42.6% | inhibition at 10 µM (SNB-19; SNB-19, CNS cancer, single dose 10^−5 M, read-out: GI% (cell growth inhibition percentage)): 31.5% | inhibition at 10 µM (MALME-3M; MALME-3M, Melanoma, single dose 10^−5 M): 64.9% | inhibition at 10 µM (M14; M14, Melanoma, single dose 10^−5 M, read-out: GI% (cell growth inhibition percentage)): 25.4% | inhibition at 10 µM (UACC-257; UACC-257, Melanoma, single dose 10^−5 M, read-out: GI% (cell growth inhibition percentage)): < 10% | inhibition at 10 µM (UACC-62; UACC-62, Melanoma, single dose 10^−5 M, read-out: GI% (cell growth inhibition percentage)): 30.9% | inhibition at 10 µM (SK-MEL-28; SK-MEL-28, Melanoma, single dose 10^−5 M, read-out: GI% (cell growth inhibition percentage)): < 10% | inhibition at 10 µM (IGROV1; IGROV-1, IGROV1, Ovarian cancer, single dose 10^−5 M, read-out: GI% (cell growth inhibition percentage)): 44.6% | inhibition at 10 µM (OVCAR-8; OVCAR-8, Ovarian cancer, single dose 10^−5 M, read-out: GI% (cell growth inhibition percentage)): 22.5% | inhibition at 10 µM (OVCAR-5; OVCAR-5, Ovarian cancer, single dose 10^−5 M, read-out: GI% (cell growth inhibition percentage)): < 10% | inhibition at 10 µM (786-0; 786-0, Renal cancer, single dose 10^−5 M, read-out: GI% (cell growth inhibition percentage)): 34.7% | inhibition at 10 µM (CAKI-1; CAKI-1, Renal cancer, single dose 10^−5 M, read-out: GI% (cell growth inhibition percentage)): 26.6% | inhibition at 10 µM (ACHN; [1]): 35.5% | inhibition at 10 µM (SN12C; [1]): 29.8% | inhibition at 10 µM (RXF 393; RXF 393, Renal cancer, single dose 10^−5 M, read-out: GI% (cell growth inhibition percentage)): 11.1% | inhibition at 10 µM (UO-31; UO-31, Renal cancer, single dose 10^−5 M, read-out: GI% (cell growth inhibition percentage)): 43.4% | inhibition at 10 µM (TK-10; TK-10, Renal cancer, single dose 10^−5 M, read-out: GI% (cell growth inhibition percentage)): < 10% | inhibition at 10 µM (DU-145; DU-145, Prostate cancer, single dose 10^−5 M, read-out: GI% (cell growth inhibition percentage)): 17% | inhibition at 10 µM (MCF7; MCF7, Breast cancer, single dose 10^−5 M, read-out: GI% (cell growth inhibition percentage)): 26.7% | inhibition at 10 µM (BT-549; BT-549, Breast cancer, single dose 10^−5 M, read-out: GI% (cell growth inhibition percentage)): 22.1% | inhibition at 10 µM (HS 578 T; HS 578 T, Breast cancer, single dose 10^−5 M): 46.3% | inhibition at 10 µM (T-47D; T-47D, Breast cancer, single dose 10^−5 M): 42.7%
